Laboratory results published in ChEMBL document CHEMBL5143622, “Synthesis and biological evaluation of 7H-pyrrolo [2,3-d] pyrimidine derivatives as potential p21-activated kinase 4 (PAK4) inhibitors” (Bioorg Med Chem, 2022).
One block for each compound: values may come before it.

Experiments:
[1] = target: T1, Serine/threonine-protein kinase PAK 4 (Homo sapiens, UniProt O96013); test: Inhibition of human PAK4 assessed as enzymatic activity incubated for 20 mins by filter binding method
Target sequence in this assay (O96013 whole entry): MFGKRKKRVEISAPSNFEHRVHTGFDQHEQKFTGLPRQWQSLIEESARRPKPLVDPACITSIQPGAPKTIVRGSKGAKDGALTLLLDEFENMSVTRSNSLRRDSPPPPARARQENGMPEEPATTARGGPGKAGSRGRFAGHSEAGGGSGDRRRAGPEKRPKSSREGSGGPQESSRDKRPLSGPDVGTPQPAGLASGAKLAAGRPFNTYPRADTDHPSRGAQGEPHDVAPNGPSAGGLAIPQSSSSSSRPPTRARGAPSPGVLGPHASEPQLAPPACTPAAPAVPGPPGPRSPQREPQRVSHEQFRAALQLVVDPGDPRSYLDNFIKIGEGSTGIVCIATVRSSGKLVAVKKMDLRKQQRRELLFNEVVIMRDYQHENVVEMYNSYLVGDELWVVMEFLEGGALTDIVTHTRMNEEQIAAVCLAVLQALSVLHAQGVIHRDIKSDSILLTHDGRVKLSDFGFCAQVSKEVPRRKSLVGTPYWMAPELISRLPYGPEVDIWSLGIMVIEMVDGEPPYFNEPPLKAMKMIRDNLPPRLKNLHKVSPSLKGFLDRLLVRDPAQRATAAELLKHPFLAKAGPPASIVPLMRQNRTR

MV4-11 [2] = test: Induction of cell cycle arrest in human MV4-11 cells assessed as accumulation at G2/M phase at 5 nM incubated for 24 hrs by propidium iodide staining based flow cytometry analysis (reference value: 7.46 %); assay type: functional
MV4-11 [3] = test: Induction of apoptosis in human MV4-11 cells assessed as viable cells at 250 nM incubated for 48 hrs by annexin V-FITC and propidium iodide staining based flow cytometry analysis (reference value: 95.6 %); assay type: functional; details: read-out: Activity
MV4-11 [4] = test: Induction of apoptosis in human MV4-11 cells assessed as early apoptotic cells at 10 nM incubated for 48 hrs by annexin V-FITC and propidium iodide staining based flow cytometry analysis (reference value: 3.71 %); assay type: functional
MV4-11 [5] = test: Induction of apoptosis in human MV4-11 cells assessed as early apoptotic cells at 250 nM incubated for 48 hrs by annexin V-FITC and propidium iodide staining based flow cytometry analysis (reference value: 3.71 %); assay type: functional
MV4-11 [6] = test: Induction of apoptosis in human MV4-11 cells assessed as early apoptotic cells at 50 nM incubated for 48 hrs by annexin V-FITC and propidium iodide staining based flow cytometry analysis (reference value: 3.71 %); assay type: functional
MV4-11 [7] = test: Induction of cell cycle arrest in human MV4-11 cells assessed as accumulation at G2/M phase at 10 nM incubated for 24 hrs by propidium iodide staining based flow cytometry analysis (reference value: 7.46 %); assay type: functional
MV4-11 [8] = test: Induction of apoptosis in human MV4-11 cells assessed as necrotic cells at 50 nM incubated for 48 hrs by annexin V-FITC and propidium iodide staining based flow cytometry analysis (reference value: 0.013 %); assay type: functional
[9] = Cytotoxicity against HEK293T cells assessed as cell growth inhibition incubated for 72 hrs by cell titre glo luminescence assay; assay type: toxicity, cell-based, HEK-293T; details: human
MV4-11 [10] = test: Induction of apoptosis in human MV4-11 cells assessed as late apoptotic cells at 10 nM incubated for 48 hrs by annexin V-FITC and propidium iodide staining based flow cytometry analysis (reference value: 1.67 %); assay type: functional
MV4-11 [11] = test: Induction of cell cycle arrest in human MV4-11 cells assessed as accumulation at G0/G1 phase at 5 nM incubated for 24 hrs by propidium iodide staining based flow cytometry analysis (reference value: 66.79 %); assay type: functional
[12] = target: T1, Serine/threonine-protein kinase PAK 4; test: Inhibition of PAK4 phosphorylation at Ser474 residue in human MV4-11 cells at 50 to 800 nM incubated for 24 hrs by Western blot analysis; assay type: cell-based; details: dose 50-800 nM, DDE = dose-dependent effect
Target sequence in this assay (O96013 whole entry, looked up): as the sequence (O96013 whole entry) above

MV4-11 [13] = test: Induction of apoptosis in human MV4-11 cells assessed as late apoptotic cells at 50 nM incubated for 48 hrs by annexin V-FITC and propidium iodide staining based flow cytometry analysis (reference value: 1.67 %); assay type: functional
MV4-11 [14] = test: Induction of cell cycle arrest in human MV4-11 cells assessed as accumulation at G2/M phase at 50 nM incubated for 24 hrs by propidium iodide staining based flow cytometry analysis (reference value: 7.46 %); assay type: functional
MV4-11 [15] = test: Induction of apoptosis in human MV4-11 cells assessed as viable cells at 50 nM incubated for 48 hrs by annexin V-FITC and propidium iodide staining based flow cytometry analysis (reference value: 95.6 %); assay type: functional; details: read-out: Activity
MV4-11 [16] = test: Induction of cell cycle arrest in human MV4-11 cells assessed as accumulation at S phase at 10 nM incubated for 24 hrs by propidium iodide staining based flow cytometry analysis (reference value: 25.75 %); assay type: functional
MV4-11 [17] = test: Induction of apoptosis in human MV4-11 cells assessed as viable cells at 10 nM incubated for 48 hrs by annexin V-FITC and propidium iodide staining based flow cytometry analysis (reference value: 95.6 %); assay type: functional; details: read-out: Activity
MDA-MB-231 = test: Antiproliferative activity against human MDA-MB-231 cells assessed as cell growth inhibition incubated for 72 hrs by cell titre glo luminescence assay; assay type: functional, cell-based; details: MDA-MB-231, 72 h
MV4-11 [18] = test: Induction of cell cycle arrest in human MV4-11 cells assessed as accumulation at S phase at 5 nM incubated for 24 hrs by propidium iodide staining based flow cytometry analysis (reference value: 25.75 %); assay type: functional
MV4-11 [19] = test: Induction of cell cycle arrest in human MV4-11 cells assessed as accumulation at S phase at 50 nM incubated for 24 hrs by propidium iodide staining based flow cytometry analysis (reference value: 25.75 %); assay type: functional
MV4-11 [20] = test: Induction of apoptosis in human MV4-11 cells assessed as late apoptotic cells at 250 nM incubated for 48 hrs by annexin V-FITC and propidium iodide staining based flow cytometry analysis (reference value: 1.67 %); assay type: functional
MV4-11 [21] = test: Induction of apoptosis in human MV4-11 cells assessed as necrotic cells at 10 nM incubated for 48 hrs by annexin V-FITC and propidium iodide staining based flow cytometry analysis (reference value: 0.013 %); assay type: functional
MV4-11 [22] = test: Induction of cell cycle arrest in human MV4-11 cells assessed as accumulation at G0/G1 phase at 10 nM incubated for 24 hrs by propidium iodide staining based flow cytometry analysis (reference value: 66.79 %); assay type: functional
MV4-11 [23] = test: Induction of apoptosis in human MV4-11 cells assessed as necrotic cells at 250 nM incubated for 48 hrs by annexin V-FITC and propidium iodide staining based flow cytometry analysis (reference value: 0.013 %); assay type: functional
MV4-11 [24] = test: Induction of cell cycle arrest in human MV4-11 cells assessed as accumulation at G0/G1 phase at 50 nM incubated for 24 hrs by propidium iodide staining based flow cytometry analysis (reference value: 66.79 %); assay type: functional
MV4-11 [25] = test: Antiproliferative activity against human MV4-11 cells assessed as cell growth inhibition incubated for 72 hrs by cell titre glo luminescence assay; assay type: functional, cell-based; details: MV4-11, 72 h
[26] = target: T1, Serine/threonine-protein kinase PAK 4; test: Inhibition of human PAK4 assessed as enzymatic activity at 2 uM incubated for 20 mins by filter binding method relative to control
Target sequence in this assay (O96013 whole entry, looked up): as the sequence (O96013 whole entry) above

[27] = target: T1, Serine/threonine-protein kinase PAK 4; test: Inhibition of human PAK4 assessed as inhibition constant
Target sequence in this assay (O96013 whole entry): as above

SMILES: Nc1ccc(/C=C/C(=O)NCc2cc3cc(-c4ccc(C(=O)N5CCC(F)(F)CC5)cc4)cc(-c4ccc(F)cc4)c3o2)cn1 [PADNARSERTIB]
IC50 [1]: 100 nM

SMILES: N[C@H]1CC[C@@H](Nc2nc(Nc3cccc(Cl)c3)nc3[nH]ccc23)CC1
Activity (MV4-11 [2]): 3.97%
viability at 0.25 µM (MV4-11 [3]): 72.8%
Activity (MV4-11 [4]): 4.28%
Activity (MV4-11 [5]): 14.5%
Activity (MV4-11 [6]): 11.9%
Activity (MV4-11 [7]): 2.48%
Activity (MV4-11 [8]): 0.043%
IC50 [1]: 2.7 nM
IC50 at 72 h [9]: > 10000 nM
Activity (MV4-11 [10]): 2.99%
Activity (MV4-11 [11]): 78.7%
inhibition [12]: Dde
Activity (MV4-11 [13]): 9.71%
Activity (MV4-11 [14]): 1.27%
viability at 0.05 µM (MV4-11 [15]): 78.4%
Activity (MV4-11 [16]): 8.71%
viability at 0.01 µM (MV4-11 [17]): 92.7%
IC50 (MDA-MB-231): 825 nM
Activity (MV4-11 [18]): 17.34%
Activity (MV4-11 [19]): 7.75%
Activity (MV4-11 [20]): 12.5%
Activity (MV4-11 [21]): 0.032%
Activity (MV4-11 [22]): 88.81%
Activity (MV4-11 [23]): 0.087%
Activity (MV4-11 [24]): 90.98%
IC50 (MV4-11 [25]): 7.8 nM

SMILES: OCCNc1nc(Nc2ccccc2)nc2[nH]ccc12
inhibition [26]: 86.9%

SMILES: c1ccc(Nc2nc(NC3CCNCC3)c3cc[nH]c3n2)cc1
inhibition [26]: 64.2%
IC50 [1]: 2940 nM

SMILES: Clc1cccc(Nc2nc(NCC3CCNCC3)c3cc[nH]c3n2)c1
inhibition [26]: 25.9%

SMILES: COc1cccc(Nc2nc(NC3CCNCC3)c3cc[nH]c3n2)c1
inhibition [26]: 46.2%

SMILES: OCC(O)CNc1nc(Nc2ccccc2)nc2[nH]ccc12 (stereo not given)
inhibition [26]: 82.4%

SMILES: COCCNc1nc2ccc(C#CC3(O)CCCCC3)cc2n1-c1ncnc(N)n1
Ki [27]: 3.3 nM

SMILES: C[C@@H]1CN(C(=O)c2nc(Nc3cc(C4CC4)[nH]n3)c3cc(Cl)ccc3n2)CCN1
IC50 [1]: 9 nM

SMILES: Fc1cccc(Nc2nc(NC3CCNCC3)c3cc[nH]c3n2)c1
inhibition [26]: 38.3%
IC50 [1]: 165 nM

SMILES: Clc1cccc(Nc2nc(NC3CCNCC3)c3cc[nH]c3n2)c1
IC50 [1]: 50.3 nM

Further lines, with some results ahead:

inhibition [26]: 61%
SMILES: NCC1CCCN(c2nc(Nc3cccc(Cl)c3)nc3[nH]ccc23)C1 (stereo not given)

inhibition [26]: 72.5%
IC50 [1]: 229 nM
SMILES: N[C@@H]1CCCN(c2nc(Nc3cccc(Cl)c3)nc3[nH]ccc23)C1

inhibition [26]: 35.5%
SMILES: CC1(N)CCN(c2nc(Nc3cccc(Cl)c3)nc3[nH]ccc23)CC1

inhibition [26]: 91.6%
SMILES: c1ccc(Nc2nc(N3CCOCC3)c3cc[nH]c3n2)cc1

inhibition [26]: 89.6%
SMILES: c1ccc(Nc2nc(N3CCNCC3)c3cc[nH]c3n2)cc1

inhibition [26]: 38.3%
IC50 [1]: 229 nM
SMILES: N[C@H]1CCCN(c2nc(Nc3cccc(Cl)c3)nc3[nH]ccc23)C1

IC50 [1]: 20.2 nM
IC50 (MDA-MB-231): 2480 nM
IC50 (MV4-11 [25]): 38.3 nM
SMILES: N[C@H]1CC[C@H](Nc2nc(Nc3cccc(Cl)c3)nc3[nH]ccc23)CC1
IC50 at 72 h [9]: 7390 nM
